The compounds below were run against T1, Solute carrier family 12 member 5 (Homo sapiens, UniProt Q9H2X9) (assay: concentration-response of KCC2 transport modulators – cell-based, HEK293 KCC2, FluoZin-2 fluorescence, dose response (AID 1736)). Conditions: not given.
T1 sequence (Q9H2X9 whole entry): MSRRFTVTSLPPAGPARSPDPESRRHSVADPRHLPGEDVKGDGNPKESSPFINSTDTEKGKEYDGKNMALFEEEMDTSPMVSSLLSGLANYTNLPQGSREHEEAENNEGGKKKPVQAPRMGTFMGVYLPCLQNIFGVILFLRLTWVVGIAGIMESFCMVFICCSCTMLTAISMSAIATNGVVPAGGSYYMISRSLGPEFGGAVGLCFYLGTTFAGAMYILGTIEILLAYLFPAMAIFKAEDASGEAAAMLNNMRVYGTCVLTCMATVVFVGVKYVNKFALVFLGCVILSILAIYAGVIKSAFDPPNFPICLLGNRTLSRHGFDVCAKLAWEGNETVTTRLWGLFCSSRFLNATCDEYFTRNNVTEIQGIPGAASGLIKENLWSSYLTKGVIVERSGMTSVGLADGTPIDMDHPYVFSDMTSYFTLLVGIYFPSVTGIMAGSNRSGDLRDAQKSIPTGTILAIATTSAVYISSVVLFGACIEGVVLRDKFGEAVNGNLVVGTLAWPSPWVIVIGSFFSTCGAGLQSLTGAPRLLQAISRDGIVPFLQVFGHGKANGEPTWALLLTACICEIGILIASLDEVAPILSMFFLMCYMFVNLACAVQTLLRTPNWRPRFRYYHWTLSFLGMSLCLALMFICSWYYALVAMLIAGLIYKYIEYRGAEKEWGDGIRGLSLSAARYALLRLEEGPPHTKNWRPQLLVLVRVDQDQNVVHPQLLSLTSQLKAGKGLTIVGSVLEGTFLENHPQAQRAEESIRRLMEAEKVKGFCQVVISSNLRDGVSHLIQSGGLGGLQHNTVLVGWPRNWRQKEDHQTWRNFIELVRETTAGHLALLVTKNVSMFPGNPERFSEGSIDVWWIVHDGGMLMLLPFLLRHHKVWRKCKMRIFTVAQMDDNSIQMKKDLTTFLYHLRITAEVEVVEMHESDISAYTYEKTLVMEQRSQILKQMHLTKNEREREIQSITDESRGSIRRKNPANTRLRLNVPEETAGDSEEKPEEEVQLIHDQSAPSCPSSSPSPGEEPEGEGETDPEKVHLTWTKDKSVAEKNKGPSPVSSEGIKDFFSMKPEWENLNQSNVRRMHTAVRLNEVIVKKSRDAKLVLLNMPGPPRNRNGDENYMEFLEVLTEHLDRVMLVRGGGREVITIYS

Row | EC50 | Compound
1 | 242 µM | COc1ccc(OC)c(-n2nnnc2SCC(=O)NCCc2ccccc2)c1 [2-[1-(2,5-Dimethoxy-phenyl)-1H-tetrazol-5-ylsulfanyl]-N-phenethyl-acetamide]
2 | 7.48 µM | CNc1ccc(/C=C(\CCC(=O)O)c2nc3ccccc3s2)cc1[N+](=O)[O-] [MLS000394200]
3 | 1.77 µM | N#Cc1nc(Cc2cccc3ccccc23)oc1N1CCOCC1 [5-(4-morpholinyl)-2-(1-naphthalenylmethyl)-4-oxazolecarbonitrile]
4 | 25.1 µM | Cc1[nH]c2ccccc2c1Cc1n[nH]c(=S)n1C
5 | 4.99 µM | C=CCn1c(Cc2cccs2)nnc1SCC(=O)c1ccc2ccccc2c1 [1-(2-naphthalenyl)-2-[[4-prop-2-enyl-5-(thiophen-2-ylmethyl)-1,2,4-triazol-3-yl]thio]ethanone]
6 | 2.93 µM | O=C(/C=C/c1ccco1)N1CCC(Cc2ccccc2)CC1 [(E)-1-(4-benzylpiperidin-1-yl)-3-(furan-2-yl)prop-2-en-1-one]
7 | 4.56 µM | O=C(COC(=O)c1cc([N+](=O)[O-])ccc1NCc1ccccc1)NC1CCCCC1 [2-(benzylamino)-5-nitro-benzoic acid [2-(cyclohexylamino)-2-keto-ethyl] ester]
8 | 5.9 µM | Fc1cccc(F)c1C=NNC(=S)Nc1cccnc1 [1-[(2,6-difluorobenzylidene)amino]-3-(3-pyridyl)thiourea]
9 | 20.1 µM | O=C(NCCc1c[nH]c2ccccc12)c1cc(S(=O)(=O)N2CCCCC2)ccc1N1CCOCC1 [N-[2-(1H-indol-3-yl)ethyl]-2-morpholin-4-yl-5-piperidin-1-ylsulfonylbenzamide]
10 | 3.2 µM | CNC(=O)/C(=C\C=C\c1ccccc1)NC(=O)c1ccc([N+](=O)[O-])cc1 [MLS000570424]
11 | 40.9 µM | Cc1nn2c(nc(O)c3ccccc32)c1C=O [MLS000565386]
12 | 408 µM | Cc1ccc(NC(=O)CCCSc2ccccc2)cc1S(=O)(=O)N1CCOCC1 [MLS000761060]
13 | 0.461 µM | N#Cc1c(NC(=O)CSc2nc(N)cc(=O)[nH]2)sc2c1CCCCCC2 [2-[(6-amino-4-oxo-1H-pyrimidin-2-yl)sulfanyl]-N-(3-cyano-4,5,6,7,8,9-hexahydrocycloocta[b]thiophen-2-yl)acetamide]
14 | 18.5 µM | CC1Cc2ccccc2N1C(=O)CSc1nnc(CNc2ccccc2)o1 (configuration not stated) [1-(2-Methyl-2,3-dihydro-indol-1-yl)-2-(5-phenylaminomethyl-[1,3,4]oxadiazol-2-ylsulfanyl)-ethanone]
15 | 41.9 µM | O=C(COC(=O)c1cc([N+](=O)[O-])ccc1NCCO)c1ccccc1 [2-(2-hydroxyethylamino)-5-nitro-benzoic acid phenacyl ester]
16 | 15.1 µM | O=C1Nc2ccc([N+](=O)[O-])cc2OC1CCN1CCN(Cc2ccccc2)CC1 (configuration not stated) [2-[2-(4-benzylpiperazin-1-yl)ethyl]-7-nitro-4H-1,4-benzoxazin-3-one]
17 | 0.599 µM | O=C(OCC(=O)N1CCN(C(=O)c2ccco2)CC1)c1sc2ccccc2c1Cl [3-chloro-1-benzothiophene-2-carboxylic acid [2-[4-[2-furanyl(oxo)methyl]-1-piperazinyl]-2-oxoethyl] ester]
18 | 2.67 µM | CC(=NNC(=O)c1ccc(Br)cc1)c1ccccc1 [MLS000558629]
19 | 0.304 µM | CCc1ccc(OCCNC(=O)c2ccccc2SCc2ccc(F)cc2)cc1 [MLS000577152]

Same assay, conditions: inactive by the depositor's call

Row | EC50 | Compound
20 | 6.18 µM | CC1=NN(C(=O)c2ccc(Br)cc2)C(O)(C(F)(F)OC(F)(F)F)C1 (configuration not stated) [[5-[bis(fluoranyl)-(trifluoromethyloxy)methyl]-3-methyl-5-oxidanyl-4H-pyrazol-1-yl]-(4-bromophenyl)methanone]
21 | 120 µM | CC(C(=O)N=c1sc2ccccc2n1C)N1C(=O)C2CC=CCC2C1=O (configuration not stated)
22 | 64 µM | CN1C(C(=O)NCc2ccccc2)CC2Cn3c(nc4cc(Cl)c(Cl)cc43)C21 (configuration not stated) [MLS000877509]
